Source: patent US20210386721A1, “SUBSTITUTED PHENYLPROPENYL PYRIDINE DERIVATIVES, THEIR PREPARATION AND PHARMACEUTICAL APPLICATIONS” (SHANGHAI HAIYAN PHARMACEUTICAL TECHNOLOGY CO., LTD., priority 2019, published 2021)

How the values were obtained:
[1] = target: T1, PD-1/PD-L1 (Homo sapiens, UniProt Q9NZQ7); experiment: PD-1/PD-L1 binding assay (HTRF, PPI-HTRF); conditions: HTRF PD1/PD-L1 binding assay kit; 10 nM Tag1-PD-L1; 25° C.
T1 construct: purchased Cisbio 63ADK000CPDPEB
Method in brief: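 HTRF binding assay: compound was mixed with tagged proteins at final concentrations of 10 nM Tag1-PD-L1 and 2 nM PD1 for 15 min at 25 °C. Anti-Tag1-Eu³⁺ and anti-Tag2-XL665 antibodies were then added for 16 h at 25 °C. IC50 was derived from the 665/620 nm emission ratio.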

[2] = tested on: Jurkat T(PD1 Luc-)/CHOK1(PDL-1); experiment: Jurkat T(PD1 Luc-)/CHOK1(PDL-1) cell experiment (luciferase reporter); assay type: cell-based; conditions: CHO/PD-L1-OKT3 cells co-cultured with Jurkat/PD1-NFAT-Luc cells for 6 hours; Bio-Glo luciferase signal
Method in brief: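 CHO/PD-L1-OKT3 cells plated 24 h at 37 °C, then compound in DMSO (1 uM final) added together with Jurkat/PD1-NFAT-Luc cells and co-cultured 6 h. Luciferase signal read with Bio-Glo; EC50 by non-linear regression.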

T1 sequence (Q9NZQ7 19-238 limits assumed): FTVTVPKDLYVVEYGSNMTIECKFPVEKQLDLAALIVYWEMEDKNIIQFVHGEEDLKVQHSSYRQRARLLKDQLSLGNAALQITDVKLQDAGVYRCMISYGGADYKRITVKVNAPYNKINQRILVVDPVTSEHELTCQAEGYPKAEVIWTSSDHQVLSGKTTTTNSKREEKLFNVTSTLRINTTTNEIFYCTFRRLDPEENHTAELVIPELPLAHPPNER

| SMILES | IC50 [1] [nM] | EC50 [2] [nM] |
| --- | --- | --- |
| COc1cc(C(=O)Nc2cccc(-c3cccc(/C=C/c4cc(OC)c(CN5CCC[C@H]5C(=O)O)cc4C(F)(F)F)c3C)c2C)ncc1CN1CC[C@@H](O)C1 [Z-115] | 1 | 31 |
| COc1cc(C(=O)Nc2cccc(-c3cccc(/C=C/c4cc(OC)c(CN5CC[C@@H](C(=O)O)C5)cc4C(F)(F)F)c3C)c2C)ncc1CN1CC[C@@H](O)C1 [Z-117] | 1 | 13 |
| COc1cc(/C=C/c2cccc(-c3cccc(NC(=O)c4cc(OC)c(CN5CC[C@@H](O)C5)cn4)c3C)c2C)c(C(F)(F)F)cc1CNC[C@@H](O)CC(=O)O [Z-118, (S)-3-hydroxy-4-((4-((E)-2-(3′-(5-(((R)-3-hydroxypyrrolidin-1-yl)methyl)-4-methoxypicolinamido)-2,2′-dimethyl-[1,1′-biphenyl]-3-yl)vinyl)-2-methoxy-5-(trifluoromethyl)benzyl)amino) butanoic Acid] | 1 | 13 |
| COc1cc(/C=C/c2cccc(-c3cccc(NC(=O)c4cc(CN5CC[C@@H](O)C5)ccn4)c3C)c2C)c(C(F)(F)F)cc1CN1CC[C@@H](C(=O)O)C1 [Z-120] | 1 | 15 |
| COc1cc(C(=O)Nc2cccc(-c3cccc(/C=C/c4cc(OC)c(CN5CCC(C)(C(=O)O)C5)cc4C(F)(F)F)c3C)c2C)ncc1CN1CC[C@@H](O)C1 (stereo partly drawn) [Z-121] | 1 | 31 |
| COc1cc(/C=C/c2cccc(-c3cccc(NC(=O)c4cc(OC)c(CN5CC[C@@H](O)C5)cn4)c3C)c2C)c(C(F)(F)F)cc1CN1CCC(C(=O)O)CC1 [Z-122] | 1 | 18 |
| COc1cc(C(=O)Nc2cccc(-c3cccc(/C=C/c4cc(CN5CC[C@@H](C(=O)O)C5)ccc4C(F)(F)F)c3C)c2C)ncc1CN1CC[C@@H](O)C1 [Z-124] | 1 | 109 |
| COC(=O)C[C@H](O)CNCc1cc(C(F)(F)F)c(/C=C/c2cccc(-c3cccc(NC(=O)c4cc(OC)c(CN5CC[C@@H](O)C5)cn4)c3C)c2C)cc1OC [Z-128] | < 1 | 39 |
| COc1cc(/C=C/c2cccc(-c3cccc(NC(=O)c4nc5c(n4C)CCN([C@H]4CC[C@@H](O)CC4)C5)c3C)c2C)c(C(F)(F)F)cc1CN1CC[C@@H](C(=O)O)C1 [Z-131, (R)-1-(4-((E)-2-(3′-(5-((1s,4s)-4-hydroxycyclohexyl)-1-methyl-4,5,6,7-tetrahydro-1H-imidazo[4,5-c]pyridine-2-carboxamido)-2,2′-dimethyl-[1,1′-biphenyl]-3-yl)vinyl)-2-methoxy-5-(trifluoromethyl)benzyl)pyrrolidine-3-carboxylic Acid] | 1 | 124 |
| COc1cc(/C=C/c2cccc(-c3cccc(NC(=O)c4nc5c(n4C)CCN([C@H]4CC[C@H](O)CC4)C5)c3C)c2C)c(C(F)(F)F)cc1CN1CC[C@@H](C(=O)O)C1 [Z-132, (R)-1-(4-((E)-2-(3′-(5-((1r,4r)-4-hydroxycyclohexyl)-1-methyl-4,5,6,7-tetrahydro-1H-imidazo[4,5-c]pyridine-2-carboxamido)-2,2′-dimethyl-[1,1′-biphenyl]-3-yl)vinyl)-2-methoxy-5-(trifluoromethyl)benzyl)pyrrolidine-3-carboxylic Acid] | 1 | 168 |
| COC(=O)[C@@H]1CCN(Cc2cc(C(F)(F)F)c(/C=C/c3cccc(-c4cccc(NC(=O)c5cc(OC)c(CN6CC[C@@H](O)C6)cn5)c4C)c3C)cc2OC)C1 [Z-133] | 2 | 31 |
| COc1cc(/C=C/c2cccc(-c3cccc(NC(=O)c4nc5c(n4C)CCN(C(C)C)C5)c3C)c2C)c(C(F)(F)F)cc1CN1CC[C@@H](C(=O)O)C1 [Z-134, (R,E)-1-(4-(2-(3′-(5-isopropyl-1-methyl-4,5,6,7-tetrahydro-1H-imidazo[4,5-c]pyridine-2-carboxamido)-2,2′-dimethyl-[1,1′-biphenyl]-3-yl)vinyl)-2-methoxy-5-(trifluoromethyl)benzyl)pyrrolidine-3-carboxylic Acid] | 1 | 91 |
| COc1cc(C(=O)Nc2cccc(-c3cccc(/C=C/c4cc(OC)c(CN5CC[C@@H](O)C5)cc4C(F)(F)F)c3C)c2C)ncc1CN1CC[C@@H](O)C1 [Z-135] | ≤ 1 | 44 |
| COc1cc(C(=O)Nc2cccc(-c3cccc(/C=C/c4cc(OC)c(CN5CC[C@@H](C(=O)O)C5)cc4C(F)(F)F)c3Cl)c2C)ncc1CN1CC[C@@H](O)C1 [Z-140] | ≤ 1 | 7 |
| CNc1cc(C(=O)Nc2cccc(-c3cccc(/C=C/c4cc(OC)c(CN5CCC(C(=O)O)C5)cc4C(F)(F)F)c3C)c2C)ncc1CN1CC[C@@H](O)C1 (stereo partly drawn) [Z-141] | ≤ 1 | 74 |
